# Results from patent US11358949B2, “Carbamate and urea compounds as multikinase inhibitors” (ANGEX PHARMACEUTICAL, INC., priority 2017, dated 2022).
# Tests used:
# BRK = BRK (Homo sapiens, UniProt Q13882); assay: HotSpot Kinase Assay, BRK
# Method: (§1) Specifically, for each reaction, kinase and substrate were mixed in a pH 7.5 buffer containing 20 mM HEPES, 10 mM MgCl2, 1 mM EGTA [Ethylene glycol-bis(2-aminoethylether)-N,N,N′,N′-tetraacetic acid], 0.02% Brij35, 0.02 mg/mL BSA (Bovine Serum Albumin), 0.1 mM Na3VO4, 2 mM DTT, and 1% DMSO. Compounds were then added to each reaction mixture. After a 20-min incubation, ATP (Sigma-Aldrich) and [γ-^33P] ATP (PerkinElmer) were added at a final total concentration of 100 μM. Reactions were carried out at room temperature for 2 hours and spotted onto P81 ion exchange cellulose chromatography paper (Whatman). […] The percent remaining kinase activity relative to a vehicle-containing (DMSO) kinase reaction was calculated for each kinase/inhibitor pair. […] IC50 values were calculated using Prism 5 (GraphPad).
# BLK = BLK (Homo sapiens, UniProt P51451); assay: HotSpot Kinase Assay, BLK
# Method: as §1
# DDR1 = DDR1 (Homo sapiens, UniProt Q08345); assay: HotSpot Kinase Assay, DDR1
# Method: as §1
# HPK4 = HPK4 (Homo sapiens, UniProt Q8NE63); assay: HotSpot Kinase Assay, HPK4
# Method: as §1
# MNK2 = MNK2 (Homo sapiens, UniProt Q9HBH9); assay: HotSpot Kinase Assay, MNK2
# Chain of MNK2 (Q9HBH9 whole entry): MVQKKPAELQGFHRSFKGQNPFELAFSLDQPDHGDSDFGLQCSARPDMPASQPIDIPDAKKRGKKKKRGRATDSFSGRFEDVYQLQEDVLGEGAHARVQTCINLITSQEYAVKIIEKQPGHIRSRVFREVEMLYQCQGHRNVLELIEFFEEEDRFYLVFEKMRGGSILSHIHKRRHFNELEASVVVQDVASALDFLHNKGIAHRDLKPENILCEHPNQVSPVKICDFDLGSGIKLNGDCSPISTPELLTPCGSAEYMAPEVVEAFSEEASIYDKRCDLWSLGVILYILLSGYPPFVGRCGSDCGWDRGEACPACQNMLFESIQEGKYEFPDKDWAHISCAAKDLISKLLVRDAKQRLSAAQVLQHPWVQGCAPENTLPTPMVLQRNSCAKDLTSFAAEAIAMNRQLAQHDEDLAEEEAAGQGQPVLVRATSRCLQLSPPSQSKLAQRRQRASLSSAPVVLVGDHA
# Method: as §1
# FLT1 = FLT1 (Homo sapiens, UniProt P17948); assay: HotSpot Kinase Assay, FLT1
# Method: as §1
# c-Kit = c-Kit (Homo sapiens, UniProt P10721); assay: HotSpot Kinase Assay, c-Kit
# Method: as §1
# MEK1 = MEK1 (Homo sapiens, UniProt Q02750); assay: HotSpot Kinase Assay, MEK1
# Method: as §1
# c-MER = target: T1, c-MER (Homo sapiens, UniProt Q12866); assay: HotSpot Kinase Assay, c-MER
# T1 sequence (Q12866 21-999): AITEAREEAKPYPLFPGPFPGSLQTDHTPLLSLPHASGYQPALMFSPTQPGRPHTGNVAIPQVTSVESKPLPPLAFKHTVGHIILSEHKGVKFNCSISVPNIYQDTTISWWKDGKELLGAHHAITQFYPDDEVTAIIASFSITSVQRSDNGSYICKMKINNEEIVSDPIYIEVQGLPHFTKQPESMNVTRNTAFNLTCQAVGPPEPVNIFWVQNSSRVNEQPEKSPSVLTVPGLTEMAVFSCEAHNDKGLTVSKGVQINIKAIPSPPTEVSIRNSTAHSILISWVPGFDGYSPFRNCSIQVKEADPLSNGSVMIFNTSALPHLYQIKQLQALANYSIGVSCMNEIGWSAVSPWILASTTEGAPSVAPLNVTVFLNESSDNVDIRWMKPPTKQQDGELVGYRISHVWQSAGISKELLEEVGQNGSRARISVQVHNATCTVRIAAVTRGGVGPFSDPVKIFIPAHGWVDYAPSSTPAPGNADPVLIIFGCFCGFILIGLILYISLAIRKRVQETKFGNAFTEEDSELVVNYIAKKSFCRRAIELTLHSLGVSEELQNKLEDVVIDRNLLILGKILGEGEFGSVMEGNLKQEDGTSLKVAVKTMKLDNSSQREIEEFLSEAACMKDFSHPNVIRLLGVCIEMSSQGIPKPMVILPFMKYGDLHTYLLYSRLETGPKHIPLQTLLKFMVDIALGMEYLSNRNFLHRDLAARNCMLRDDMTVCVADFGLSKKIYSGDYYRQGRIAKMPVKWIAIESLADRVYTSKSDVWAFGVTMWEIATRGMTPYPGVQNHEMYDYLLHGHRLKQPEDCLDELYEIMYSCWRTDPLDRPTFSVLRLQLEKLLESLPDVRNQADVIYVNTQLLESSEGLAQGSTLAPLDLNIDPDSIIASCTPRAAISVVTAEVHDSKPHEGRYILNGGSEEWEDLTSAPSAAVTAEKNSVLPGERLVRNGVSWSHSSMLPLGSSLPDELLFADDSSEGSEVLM
# Method: as §1
# EPHB4 = EPHB4 (Homo sapiens, UniProt P54760); assay: HotSpot Kinase Assay, EPHB4
# Method: as §1
# EPHA3 = EPHA3 (Homo sapiens, UniProt P29320); assay: HotSpot Kinase Assay, EPHA3
# Method: as §1
# EPHA4 = EPHA4 (Homo sapiens, UniProt P54764); assay: HotSpot Kinase Assay, EPHA4
# Chain of EPHA4 (P54764 20-986): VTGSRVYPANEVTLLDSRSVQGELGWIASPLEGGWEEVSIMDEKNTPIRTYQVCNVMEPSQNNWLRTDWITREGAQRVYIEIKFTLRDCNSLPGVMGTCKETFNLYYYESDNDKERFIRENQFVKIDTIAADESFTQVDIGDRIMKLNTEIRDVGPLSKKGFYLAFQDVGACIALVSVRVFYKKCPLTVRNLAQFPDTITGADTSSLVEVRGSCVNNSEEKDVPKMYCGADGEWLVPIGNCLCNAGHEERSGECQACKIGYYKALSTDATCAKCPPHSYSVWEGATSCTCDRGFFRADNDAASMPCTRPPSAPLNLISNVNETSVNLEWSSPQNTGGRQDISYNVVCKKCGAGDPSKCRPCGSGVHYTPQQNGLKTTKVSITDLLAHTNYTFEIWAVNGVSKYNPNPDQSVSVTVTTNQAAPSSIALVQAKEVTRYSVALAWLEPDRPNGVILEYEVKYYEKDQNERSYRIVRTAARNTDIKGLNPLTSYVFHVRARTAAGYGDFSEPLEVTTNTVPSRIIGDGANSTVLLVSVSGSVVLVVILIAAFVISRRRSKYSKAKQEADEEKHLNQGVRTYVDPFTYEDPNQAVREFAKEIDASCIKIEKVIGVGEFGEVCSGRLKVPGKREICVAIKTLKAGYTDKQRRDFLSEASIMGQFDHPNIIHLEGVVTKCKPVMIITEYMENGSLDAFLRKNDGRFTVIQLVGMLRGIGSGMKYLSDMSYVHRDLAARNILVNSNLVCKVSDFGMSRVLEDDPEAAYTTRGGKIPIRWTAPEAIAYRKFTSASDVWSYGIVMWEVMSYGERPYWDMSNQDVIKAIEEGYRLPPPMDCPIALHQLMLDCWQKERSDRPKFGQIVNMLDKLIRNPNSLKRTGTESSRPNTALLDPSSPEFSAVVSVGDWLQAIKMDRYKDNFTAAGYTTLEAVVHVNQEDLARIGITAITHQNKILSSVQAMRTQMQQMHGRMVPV
# Method: as §1
# EPHB1 = EPHB1 (Homo sapiens, UniProt P54762); assay: HotSpot Kinase Assay, EPHB1
# Chain of EPHB1 (P54762 18-984): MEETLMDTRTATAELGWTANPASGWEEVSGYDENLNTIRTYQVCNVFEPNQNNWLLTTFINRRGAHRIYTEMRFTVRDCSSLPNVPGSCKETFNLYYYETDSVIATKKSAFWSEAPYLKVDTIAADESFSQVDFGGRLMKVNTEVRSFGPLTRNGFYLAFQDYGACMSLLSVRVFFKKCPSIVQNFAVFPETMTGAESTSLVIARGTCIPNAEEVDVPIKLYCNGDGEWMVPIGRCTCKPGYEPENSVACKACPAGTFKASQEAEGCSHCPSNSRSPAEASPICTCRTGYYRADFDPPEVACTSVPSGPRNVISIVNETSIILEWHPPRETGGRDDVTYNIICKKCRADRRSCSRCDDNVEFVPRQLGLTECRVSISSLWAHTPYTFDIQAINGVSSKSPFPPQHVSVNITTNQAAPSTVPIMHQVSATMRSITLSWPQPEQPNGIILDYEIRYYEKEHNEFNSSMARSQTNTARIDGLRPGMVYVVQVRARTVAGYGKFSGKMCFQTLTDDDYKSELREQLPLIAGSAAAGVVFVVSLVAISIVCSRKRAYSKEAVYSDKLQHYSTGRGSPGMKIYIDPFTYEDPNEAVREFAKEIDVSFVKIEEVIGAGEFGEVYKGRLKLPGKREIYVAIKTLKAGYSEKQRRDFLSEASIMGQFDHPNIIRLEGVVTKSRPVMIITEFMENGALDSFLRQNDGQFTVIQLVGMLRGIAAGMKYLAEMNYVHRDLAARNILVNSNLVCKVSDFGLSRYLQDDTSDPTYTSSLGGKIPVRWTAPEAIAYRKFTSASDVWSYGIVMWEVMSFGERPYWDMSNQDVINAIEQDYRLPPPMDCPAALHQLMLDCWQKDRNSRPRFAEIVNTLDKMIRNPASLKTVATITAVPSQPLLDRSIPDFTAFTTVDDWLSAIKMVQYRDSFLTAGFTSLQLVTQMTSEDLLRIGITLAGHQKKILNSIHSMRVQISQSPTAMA
# Method: as §1
# PDGFβ = PDGFβ (Homo sapiens, UniProt P09619); assay: HotSpot Kinase Assay, PDGFβ
# Method: as §1
# TIE2/TEK = TIE2/TEK (Homo sapiens, UniProt Q02763); assay: HotSpot Kinase Assay, TIE2/TEK
# Method: as §1
# SLK/STK2 = SLK/STK2 (Homo sapiens, UniProt Q9H2G2); assay: HotSpot Kinase Assay, SLK/STK2
# Chain of SLK/STK2 (Q9H2G2 whole entry): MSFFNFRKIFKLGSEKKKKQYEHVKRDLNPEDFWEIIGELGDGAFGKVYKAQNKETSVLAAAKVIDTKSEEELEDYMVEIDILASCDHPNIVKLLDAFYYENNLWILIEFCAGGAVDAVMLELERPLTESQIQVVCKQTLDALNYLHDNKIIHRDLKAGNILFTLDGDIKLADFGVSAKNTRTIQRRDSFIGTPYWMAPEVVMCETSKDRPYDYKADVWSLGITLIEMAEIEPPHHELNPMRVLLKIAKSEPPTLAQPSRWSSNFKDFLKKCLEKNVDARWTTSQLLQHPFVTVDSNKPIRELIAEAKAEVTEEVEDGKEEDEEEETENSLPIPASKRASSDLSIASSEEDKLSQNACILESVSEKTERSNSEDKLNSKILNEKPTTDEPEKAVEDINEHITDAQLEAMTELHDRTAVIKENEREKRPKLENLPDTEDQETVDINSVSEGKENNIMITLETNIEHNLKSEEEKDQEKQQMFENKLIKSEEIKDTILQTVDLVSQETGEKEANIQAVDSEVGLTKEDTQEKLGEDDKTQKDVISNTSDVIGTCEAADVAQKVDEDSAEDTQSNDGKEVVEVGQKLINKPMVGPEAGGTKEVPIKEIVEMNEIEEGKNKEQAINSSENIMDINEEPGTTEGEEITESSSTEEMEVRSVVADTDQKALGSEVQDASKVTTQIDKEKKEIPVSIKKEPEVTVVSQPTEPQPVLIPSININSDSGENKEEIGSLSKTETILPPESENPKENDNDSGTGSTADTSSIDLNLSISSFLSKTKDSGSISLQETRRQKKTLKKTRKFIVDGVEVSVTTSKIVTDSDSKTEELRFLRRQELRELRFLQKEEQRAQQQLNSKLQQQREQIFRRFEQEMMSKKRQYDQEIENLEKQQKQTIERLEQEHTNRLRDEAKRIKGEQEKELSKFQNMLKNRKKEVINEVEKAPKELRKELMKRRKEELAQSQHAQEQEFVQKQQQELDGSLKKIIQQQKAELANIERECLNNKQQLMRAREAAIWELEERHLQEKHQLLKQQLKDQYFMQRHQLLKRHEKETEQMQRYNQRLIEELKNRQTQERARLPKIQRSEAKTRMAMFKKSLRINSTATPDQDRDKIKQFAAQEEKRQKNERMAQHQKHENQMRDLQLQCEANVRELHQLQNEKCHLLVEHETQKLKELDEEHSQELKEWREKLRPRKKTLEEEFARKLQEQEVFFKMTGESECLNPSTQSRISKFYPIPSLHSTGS
# Method: as §1
# LOK/STK10 = LOK/STK10 (Homo sapiens, UniProt O94804); assay: HotSpot Kinase Assay, LOK/STK10
# Method: as §1
# KDR/VEGFR2 = KDR/VEGFR2 (Homo sapiens, UniProt P35968); assay: HotSpot Kinase Assay, KDR/VEGFR2
# Chain of KDR/VEGFR2 (P35968 20-1356): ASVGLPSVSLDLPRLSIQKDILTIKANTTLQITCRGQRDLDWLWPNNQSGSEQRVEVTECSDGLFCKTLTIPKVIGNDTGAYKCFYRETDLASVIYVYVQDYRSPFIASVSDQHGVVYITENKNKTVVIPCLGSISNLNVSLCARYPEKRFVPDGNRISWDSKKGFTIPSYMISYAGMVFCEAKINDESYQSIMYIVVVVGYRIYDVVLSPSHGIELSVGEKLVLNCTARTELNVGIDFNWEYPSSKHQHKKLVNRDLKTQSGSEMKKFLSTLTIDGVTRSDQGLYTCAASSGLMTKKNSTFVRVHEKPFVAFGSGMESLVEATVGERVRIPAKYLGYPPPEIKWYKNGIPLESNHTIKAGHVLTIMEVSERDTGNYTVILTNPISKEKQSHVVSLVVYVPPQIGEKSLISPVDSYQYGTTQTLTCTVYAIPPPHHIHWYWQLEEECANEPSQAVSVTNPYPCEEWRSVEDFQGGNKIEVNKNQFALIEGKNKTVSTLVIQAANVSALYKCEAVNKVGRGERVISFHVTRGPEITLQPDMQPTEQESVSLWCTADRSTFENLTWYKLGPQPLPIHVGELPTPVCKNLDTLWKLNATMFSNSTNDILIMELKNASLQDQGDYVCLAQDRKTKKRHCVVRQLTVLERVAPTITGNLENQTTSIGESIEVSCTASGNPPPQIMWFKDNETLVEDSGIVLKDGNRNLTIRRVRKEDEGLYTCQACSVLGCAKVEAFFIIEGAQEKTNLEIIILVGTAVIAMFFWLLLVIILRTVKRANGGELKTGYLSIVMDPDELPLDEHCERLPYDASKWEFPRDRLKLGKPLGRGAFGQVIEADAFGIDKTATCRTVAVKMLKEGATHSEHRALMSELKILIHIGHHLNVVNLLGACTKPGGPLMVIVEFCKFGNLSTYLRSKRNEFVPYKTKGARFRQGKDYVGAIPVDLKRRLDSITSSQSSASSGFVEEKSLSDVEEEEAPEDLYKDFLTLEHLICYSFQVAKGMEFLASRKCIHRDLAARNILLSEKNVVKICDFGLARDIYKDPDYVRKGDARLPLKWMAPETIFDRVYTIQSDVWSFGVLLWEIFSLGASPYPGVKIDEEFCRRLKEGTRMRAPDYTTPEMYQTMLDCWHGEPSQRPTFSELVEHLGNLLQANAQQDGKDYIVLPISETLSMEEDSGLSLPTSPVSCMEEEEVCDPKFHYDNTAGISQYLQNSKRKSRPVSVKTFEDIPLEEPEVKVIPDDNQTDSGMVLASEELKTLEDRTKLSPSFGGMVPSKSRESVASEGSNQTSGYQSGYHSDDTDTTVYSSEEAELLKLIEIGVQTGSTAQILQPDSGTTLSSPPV
# Method: as §1
smiles,measurement,setting,value
COc1cc2c(Oc3ccc(NC(=O)C4(C(=O)Nc5ccc(F)cc5)CC4)cc3)ccnc2cc1OC(=O)N1CCN(C)CC1 [Compound 1-10],IC50,BRK,< 100 nM
same,IC50,BLK,> 1000 nM
same,IC50,DDR1,< 100 nM
same,IC50,HPK4,< 100 nM
same,IC50,MNK2,100 to 1000 nM
same,IC50,FLT1,100 to 1000 nM
same,IC50,c-Kit,< 100 nM
same,IC50,MEK1,> 1000 nM
same,IC50,c-MER,< 100 nM
same,IC50,EPHB4,100 to 1000 nM
same,IC50,EPHA3,100 to 1000 nM
same,IC50,EPHA4,100 to 1000 nM
same,IC50,EPHB1,100 to 1000 nM
same,IC50,PDGFβ,100 to 1000 nM
same,IC50,TIE2/TEK,> 1000 nM
same,IC50,SLK/STK2,> 1000 nM
same,IC50,LOK/STK10,100 to 1000 nM
same,IC50,KDR/VEGFR2,100 to 1000 nM
